The record followed here is PubChem BioAssay AID200 (DTP/NCI, 2004).

The test has as its system B6C3F1 mice, B16 melanoma ip, median survival T/C. The test is described as follows: NCI In Vivo Anticancer Drug Screen. Data for tumor model B16 Melanoma (intraperitoneal) in B6C3F1 mice. As to conditions: endpoint: median survival time, higher = longer survival. The procedure, abridged: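 Mice bearing transplanted tumor were dosed with compound or vehicle, and survival was recorded. Activity is expressed as the treated-group measurement (T) divided by the vehicle control measurement (C).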

Where [1] appears, read: dose: 12.5 mg/kg/injection, schedule: Q01DX009 (ip), vehicle: saline with Tween-80.
Setting [2] is: dose: 25.0 mg/kg/injection, schedule: Q01DX009 (ip), vehicle: saline with Tween-80.
The mark [3] stands for this setting: dose: 50.0 mg/kg/injection, schedule: Q01DX009 (ip), vehicle: saline with Tween-80.
[4] abbreviates: dose: 100.0 mg/kg/injection, schedule: Q01DX009 (ip), vehicle: saline with Tween-80.
[5] abbreviates: dose: 200.0 mg/kg/injection, schedule: Q01DX009 (ip), vehicle: saline with Tween-80.
Where [6] appears, read: dose: 6.25 mg/kg/injection, schedule: Q01DX009 (ip), vehicle: Klucel (hydroxypropylcellulose) (HPC).
[7] abbreviates: dose: 12.5 mg/kg/injection, schedule: Q01DX009 (ip), vehicle: Klucel (hydroxypropylcellulose) (HPC).
[8] abbreviates: dose: 25.0 mg/kg/injection, schedule: Q01DX009 (ip), vehicle: Klucel (hydroxypropylcellulose) (HPC).
Setting [9] is: dose: 100.0 mg/kg/injection, schedule: Q01DX009 (ip), vehicle: Klucel (hydroxypropylcellulose) (HPC).
Setting [10] is: dose: 25.0 mg/kg/injection, schedule: Q01DX009 (ip), vehicle: saline.
Setting [11] is: dose: 200.0 mg/kg/injection, schedule: Q01DX009 (ip), vehicle: saline.
Where [12] appears, read: dose: 400.0 mg/kg/injection, schedule: Q01DX009 (ip), vehicle: saline.

SMILES strings stand for the structures. Where “and” joins values, the source holds several entries; their conditions need not be identical. Equal entries are not always repeated. Inconclusive results and toxic doses are left out.

As to `N#CC(=C1SCS1)[N+](=O)[O-]`, the T/C runs as follows: (dose: 0.37 mg/kg/injection, schedule: Q01DX009 (ip), vehicle: saline with Tween-80) 108 % of control; (dose: 0.75 mg/kg/injection, schedule: Q01DX009 (ip), vehicle: saline with Tween-80) 100 % of control; (dose: 1.5 mg/kg/injection, schedule: Q01DX009 (ip), vehicle: saline with Tween-80) 105 % of control; (dose: 3.0 mg/kg/injection, schedule: Q01DX009 (ip), vehicle: saline with Tween-80) 119 % of control; (dose: 6.0 mg/kg/injection, schedule: Q01DX009 (ip), vehicle: saline with Tween-80) 118 % of control; (dose: 12.0 mg/kg/injection, schedule: Q01DX009 (ip), vehicle: saline with Tween-80) 107 % of control. The T/C is 107 % of control (dose: 375.0 micrograms/kg/injection, schedule: Q01DX009 (ip), vehicle: saline with Tween-80); 104 % of control (dose: 750.0 micrograms/kg/injection, schedule: Q01DX009 (ip), vehicle: saline with Tween-80); 113 % of control (dose: 1500.0 micrograms/kg/injection, schedule: Q01DX009 (ip), vehicle: saline with Tween-80); 108 % of control (dose: 3000.0 micrograms/kg/injection, schedule: Q01DX009 (ip), vehicle: saline with Tween-80); 101 % of control (dose: 6000.0 micrograms/kg/injection, schedule: Q01DX009 (ip), vehicle: saline with Tween-80).

Regarding `O=CN(SSN(C=O)C1CCCCC1)C1CCCCC1`, the T/C is 90 % of control under setting [1]; 106 % of control under setting [2]; 101 % of control under setting [3]; 89 % of control under setting [4]; 97 % of control under setting [5].

As for `Cn1c2ccccc2c2ccc3c(c21)C(=O)C=CC3=O`, the T/C was 96 % of control under setting [6] and 107 % of control under setting [7].

For the compound `CCCC(NC(=O)OCc1ccccc1)C(=O)NC(C)C(=O)O` (stereo not drawn), the T/C was 101 % of control under setting [8]; 104 % of control (dose: 50.0 mg/kg/injection, schedule: Q01DX009 (ip), vehicle: Klucel (hydroxypropylcellulose) (HPC)); 102 % of control under setting [9].

Consider `COc1ccc(C(=O)C(CN(C)C)CN(C)C)cc1`, for which the T/C was 92 % of control (dose: 1.56 mg/kg/injection, schedule: Q01DX009 (ip), vehicle: saline); 96 % of control (dose: 3.12 mg/kg/injection, schedule: Q01DX009 (ip), vehicle: saline); 94 % of control (dose: 6.25 mg/kg/injection, schedule: Q01DX009 (ip), vehicle: saline); 97 % of control (dose: 12.5 mg/kg/injection, schedule: Q01DX009 (ip), vehicle: saline); 102 % of control under setting [10].

Consider `OCc1c(CO)c(-c2ccc(Cl)cc2)n2c1CCC2`, for which the T/C was 94 % of control (dose: 25.0 mg/kg/injection, schedule: Q01DX009 (ip), vehicle: distilled water + Tween-80); 107 % of control (dose: 50.0 mg/kg/injection, schedule: Q01DX009 (ip), vehicle: distilled water + Tween-80); 121 % of control (dose: 100.0 mg/kg/injection, schedule: Q01DX009 (ip), vehicle: distilled water + Tween-80); 198 % of control (dose: 200.0 mg/kg/injection, schedule: Q01DX009 (ip), vehicle: distilled water + Tween-80).

For `O=C(Nc1ccc(N=C=S)cc1Cl)c1cc(Cl)cc(Cl)c1O`, the T/C by setting is: under setting [6], 107 % of control; under setting [7], 98 % of control; under setting [8], 116 % of control.

On to `c1ccc2[nH]ncc2c1`, for which the T/C runs as follows: under setting [3], 107 % of control; under setting [4], 104 % of control; under setting [5], 102 % of control.

Regarding `NC(CNC(=O)CBr)C(=O)O` (stereo not drawn), the T/C (dose: 6.25 mg/kg/injection, schedule: Q01DX009 (ip), vehicle: water) was 112 % of control and 117 % of control and 104 % of control; the T/C (dose: 12.5 mg/kg/injection, schedule: Q01DX009 (ip), vehicle: water) is 116 % of control and 118 % of control; the T/C (dose: 50.0 mg/kg/injection, schedule: Q01DX009 (ip), vehicle: water) was 153 % of control.

With `Ic1ccc2c(c1)N(c1ccccc1)c1cc(N=c3ccc4nc5ccc(I)cc5n(-c5ccccc5)c-4c3)ccc1N2`, the T/C is 91 % of control under setting [9]; 94 % of control (dose: 200.0 mg/kg/injection, schedule: Q01DX009 (ip), vehicle: Klucel (hydroxypropylcellulose) (HPC)); 91 % of control (dose: 400.0 mg/kg/injection, schedule: Q01DX009 (ip), vehicle: Klucel (hydroxypropylcellulose) (HPC)).

On to `C1CCC(NC2CCCCC2)CC1`, for which the T/C under setting [10] was 86 % of control; the T/C (dose: 50.0 mg/kg/injection, schedule: Q01DX009 (ip), vehicle: saline) is 101 % of control; the T/C (dose: 100.0 mg/kg/injection, schedule: Q01DX009 (ip), vehicle: saline) was 106 % of control; the T/C under setting [11] was 86 % of control; the T/C under setting [12] is 104 % of control.

In the case of `O=Cc1c(O)c2ccccc2[nH]c1=O`, the T/C (dose: 6.25 mg/kg/injection, schedule: Q01DX009 (ip), vehicle: saline with Tween-80) is 109 % of control and 107 % of control; the T/C under setting [1] was 108 % of control and 105 % of control; the T/C under setting [2] is 119 % of control.

Turning to `O=C(CCl)N1c2ccccc2Oc2cc3ccccc3cc21`, the T/C is, setting by setting: under setting [3], 111 % of control; under setting [4], 108 % of control; under setting [5], 97 % of control; under setting [11], 122 % of control and 95 % of control; (dose: 400.0 mg/kg/injection, schedule: Q01DX009 (ip), vehicle: saline with Tween-80) 92 % of control; under setting [12], 97 % of control and 100 % of control.

For `CC(C)(C[NH-])C[NH-].[Cl][Pt+2][Cl]`, the T/C is 111 % of control (dose: 0.25 mg/kg/injection, schedule: Q01DX009 (ip), vehicle: water); 123 % of control (dose: 0.5 mg/kg/injection, schedule: Q01DX009 (ip), vehicle: water); 175 % of control (dose: 2.0 mg/kg/injection, schedule: Q01DX009 (ip), vehicle: water); 168 % of control (dose: 2.0 mg/kg/injection, schedule: Q04DX003 (ip), vehicle: water); 200 % of control (dose: 4.0 mg/kg/injection, schedule: Q04DX003 (ip), vehicle: water).

As for `CC1(C)N=C(N)N=C(N)N1c1ccc(CCCCc2ccc(S(=O)(=O)F)cc2Cl)c(Cl)c1`, the T/C reads like this: (dose: 1.56 mg/kg/injection, schedule: Q01DX009 (ip), vehicle: other) 100 % of control; (dose: 1.56 mg/kg/injection, schedule: Q01DX009 (ip), vehicle: saline with Tween-80) 122 % of control; (dose: 3.12 mg/kg/injection, schedule: Q01DX009 (ip), vehicle: other) 104 % of control; (dose: 6.25 mg/kg/injection, schedule: Q01DX009 (ip), vehicle: other) 109 % of control; (dose: 12.5 mg/kg/injection, schedule: Q01DX009 (ip), vehicle: other) 102 % of control; under setting [2], 156 % of control.

In the case of `O=CCC(O)C(O)C(O)CO` (stereo not drawn), the T/C by setting is: (dose: 300.0 mg/kg/injection, schedule: Q01DX009 (ip), vehicle: saline) 112 % of control; (dose: 600.0 mg/kg/injection, schedule: Q01DX009 (ip), vehicle: saline) 103 % of control; (dose: 1200.0 mg/kg/injection, schedule: Q01DX009 (ip), vehicle: saline) 104 % of control; (dose: 1800.0 mg/kg/injection, schedule: Q01DX009 (ip), vehicle: saline) 108 % of control; (dose: 2400.0 mg/kg/injection, schedule: Q01DX009 (ip), vehicle: saline) 101 % of control.

On to `COC1=C2C[C@@H](C)C[C@@H](OC)[C@@H](O)[C@H](C)/C=C(\C)[C@@H](OC(N)=O)[C@H](OC)/C=C\C=C(/C)C(=O)NC(=CC1=O)C2=O`, for which the T/C is, setting by setting: (dose: 0.12 mg/kg/injection, schedule: Q01DX009 (ip), vehicle: saline with Tween-80) 103 % of control and 106 % of control; (dose: 0.13 mg/kg/injection, schedule: Q01DX009 (ip), vehicle: saline with Tween-80) 105 % of control; (dose: 0.25 mg/kg/injection, schedule: Q01DX009 (ip), vehicle: saline with Tween-80) 108 % of control and 118 % of control; (dose: 0.5 mg/kg/injection, schedule: Q01DX009 (ip), vehicle: saline with Tween-80) 122 % of control and 102 % of control and 105 % of control; (dose: 1.0 mg/kg/injection, schedule: Q01DX009 (ip), vehicle: saline with Tween-80) 109 % of control and 102 % of control; (dose: 2.0 mg/kg/injection, schedule: Q01DX009 (ip), vehicle: saline with Tween-80) 123 % of control and 106 % of control.
